A word on the Vmax: it is the rate approached at saturating substrate.

Data set [1] has as its system glutamine synthetase enzyme in plants. The conditions noted are these: leads to plant death; cited from earlier work.
A short description of data set [2]: Particle size measurement (Dv90, volumetric distribution). It is filed as physicochemical. The source says: The size range of crystalline L-glufosinate ammonium monohydrate particles obtained by using the methods provided herein is convenient for use in formulations. In some embodiments, the crystals are mixed with water and other formulation ingredients to form an herbicidal product. In some embodiments, 90% of the crystalline L-glufosinate ammonium particles are less than about 350 microns as determined by volumetric distribution measurement basis (i.e., “Dv90”). For example, the Dv90 of the particles can be less than about 350 microns or less than about 300 microns or less than about 250 microns or less than about 200 microns or less than about 150 microns or less than about 125 microns or less than about 100 microns or less than about 75 microns or less than about 50 microns or less than about 25 microns. […]
L-glufosinate ammonium starting material (50 g, 77% total L-glufosinate ammonium, 7.3% ammonium glutamate) was added to 35.0 g of 45:55 (w:w) methanol:water. […] The crystals were analyzed by X-ray powder diffraction and the resulting pattern was consistent with that of L-glufosinate ammonium monohydrate Form B, however several peaks consistent with L-glufosinate ammonium monohydrate Form A were present.

Data set [3] is described as follows: Hygroscopicity of solid L-glufosinate forms in contact with ambient air. It is filed as physicochemical. The conditions noted are these: contact with ambient air in the laboratory; compared with non-crystalline forms. The source says: L-glufosinate produced in a stable solid form is highly desirable for commercial manufacture. Some forms of solid L-glufosinate are hygroscopic, and therefore extra measures must be taken to eliminate contact between these solid L-glufosinate forms and water vapor. […] Several crystalline forms of L-glufosinate are disclosed in WO 2019/018406, and two of these forms (indicated as “Form A” and “Form B”) have now been identified as monohydrate crystals of L-glufosinate ammonium.

Data set [4] has as its system plants. The conditions noted are these: Ruhland et al. (2002); cited from earlier work.
Data set [5] is described as follows: DAAO enzyme kinetics assay (HRP/TBHBA/4-AAP dye, Michaelis Menten, Vmax). It is filed as biochemical. The conditions noted are these: 30° C., 460 nm, measurement at 15 minutes, final DAAO 5 μg/mL, racemic glufosinate substrate, pH 8.0 potassium phosphate buffer.
Description: The following dye stock solutions were prepared: a 20 mg/mL stock solution of 2,4,6-tribromo-3-hydroxybenzoic acid (TBHBA) in DMSO; and a 100 mg/mL stock solution of 4-aminoantipyrine (4-AAP) in water. The following enzyme stock solution was prepared: a 1 mg/mL stock solution of horseradish peroxide (HRP) type 6 in a pH 8.0 potassium phosphate buffer. The following substrate stock solution was prepared: varying concentrations of racemic glufosinate in a pH 8.0 potassium phosphate buffer such that the initial reaction concentrations of racemic glufosinate were 0, 1, 10, 100, 250, and 500 nM. DAAO enzymes were made in E. coli which were lysed and the cell free extracts freeze dried. Enzyme amounts in the cell free extracts were quantified using SDS-PAGE and staining by Coomassie Blue.
Mix A is a combination of the substrate and HRP enzyme. Solutions were prepared for each substrate concentration to be assayed using reaction buffer. The solutions were two times the final substrate concentration and 0.2 mg/mL for the HRP solution.
Mix B is a dye mixture. To 5 mL of reaction buffer was added 120 μL of TBHBA solution and 400 μL of 4-AAP solution.
Mix C is an enzyme mixture. A 0.02 mg/mL solution of DAAO in reaction buffer was prepared. […]
The enzyme kinetics were measured as described above, plotted on a Michaelis Menten graph, and used to calculate Vmax.

As for `CP(=O)(O)CC[C@H](N)C(=O)O` [L-glufosinate], the “inhibition of glutamine synthetase enzyme” value in data set [1] is on record as “inhibits”. As to `CP(=O)(O)CC[C@H](N)C(=O)O.N.O` [L-glufosinate ammonium monohydrate], the Dv90 particle size in data set [2] (Example 9, crystallized with 0.4 M ammonium hydroxide) is 70.7 microns; in data set [2] (Example 10, crystallized without ammonium hydroxide), 102 microns. As for `CP(=O)(O)CC[C@H](N)C(=O)O` [crystalline L-glufosinate P free acid, L-glufosinate P free acid], the hygroscopicity result in data set [3] is listed as “significantly lower”.

For `CP(=O)(O)CC[C@H](N)C(=O)O.N.O` [Form A, L-glufosinate ammonium monohydrate], the hygroscopicity result in data set [3] is “low hygroscopicity”. As for `CP(=O)(O)CC[C@H](N)C(=O)O` [amorphous L-glufosinate solids, L-glufosinate], in data set [3], the hygroscopicity result is “particularly hygroscopic”. In the case of `CP(=O)(O)CC[C@@H](N)C(=O)O` [D-glufosinate], the herbicidal activity result in data set [4] is “essentially no herbicidal activity”.

B1: Mut846: variant DAAO enzyme, sequence provided in SEQ ID NO: 2 (protein)
chain: MASPSNKQIVVLGAGVIGLTTAVKIQEQRGYQVTIIAEILPSDPKSIRYTSHWAGAHHVSLAGEDKLQARVDQETFGVMWEMSAPGGEAEGCFLRQKQVEYYCDKQADPHPLEHMPDFRRLDENSLIPNTVAGIGFTTLTIDTPIYLNYLLSRFLARGGAIVRGSVQHISQVVDGGARVFTGSKSAGVPVDAVIVCAGIGARFLGGVEDKDVYPIRGQTVLLRAPWIRFGRTMSSKDGLYTYIIPRRSGDVIVGGIKVPNDWYPTPRPETTQDILKRGLALCPELAPQSIRDQREPTVDDLRPLVIEEGCGLRPGRKGGIRLEVEWYAKTDGQAPKVPIVHNYGHGGAGFQASWGSASVALELLEKALAQARLAM
modifications: Rhodosporidium toruloides
Take B1: the Vmax in data set [5] was 5.54 µmol/min/mg.

Values taken from patent US12234254B2, “Methods for producing crystalline L-glufosinate ammonium monohydrate” (BASF SE, priority 2019, dated 2025).
